From US20220289753A1, “SHP2 INHIBITORS” (IRBM S.P.A., priority 2019, published 2022)
Where two headings read alike, the source gives them in different places.

Columns and labels:
[1] = molecular target: T1, SHP-2 enzyme (Met1-Leu525) (Homo sapiens, UniProt Q06124); experiment: SHP2 inhibition enzymatic assay (DiFMUP substrate, IRS1 peptide activation); type: biochemical; conditions: SHP2 wt; activated by 500 nM IRS1 peptide; 75 μM DiFMUP substrate
T1 construct: synthetized by Origene, Met1-Leu525, cat #TP750155; purchased Origene TP750155
T1 sequence (Q06124 1-525): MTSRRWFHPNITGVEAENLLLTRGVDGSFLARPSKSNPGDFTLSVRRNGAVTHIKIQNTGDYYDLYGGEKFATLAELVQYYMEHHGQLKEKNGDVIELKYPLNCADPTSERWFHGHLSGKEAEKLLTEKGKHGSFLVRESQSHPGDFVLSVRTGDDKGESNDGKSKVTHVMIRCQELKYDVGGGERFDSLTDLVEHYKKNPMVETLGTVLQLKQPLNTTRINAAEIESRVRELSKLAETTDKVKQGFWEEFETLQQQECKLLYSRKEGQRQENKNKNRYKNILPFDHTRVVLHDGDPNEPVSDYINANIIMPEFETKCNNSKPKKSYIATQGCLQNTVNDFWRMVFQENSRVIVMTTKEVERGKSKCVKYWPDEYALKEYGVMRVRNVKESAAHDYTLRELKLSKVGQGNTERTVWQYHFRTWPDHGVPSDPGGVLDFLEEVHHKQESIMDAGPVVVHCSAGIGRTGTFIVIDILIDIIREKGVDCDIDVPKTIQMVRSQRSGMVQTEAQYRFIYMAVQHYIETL
Method in brief: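 SHP-2 (Met1-Leu525, 0.5 nM final) preincubated 30 min with compounds and IRS1 activating peptide in HEPES pH 7.2 buffer with NaCl, KCl, EDTA, tween-20, 5 mM DTT. DiFMUP then added for 30 min at room temperature and fluorescence read. IC50 from four-parameter logistic fit of % inhibition.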

[2] = test system: ERK phosphorylation in KYSE-520 cells; experiment: Phospho-ERK cellular assay (Advanced phospho-ERK1/2 (Thr202/Tyr204) TR-FRET kit); type: cell-based; conditions: Homo sapiens, KYSE-520, 2 h, read-out: pERK IC50
Protocol: Phospho-ERK Cellular Assay
ERK phosphorylation was detected using the “Advanced phospho-ERK1/2 (Thr202/Tyr204)” TR-FRET kit (Cisbio, Cat #64AERPEG/H), following the manufacturer reagents and instructions. […] After an overnight incubation, cells were treated with DMSO serial diluted compounds and incubated for 2 h at 37° C. After incubation, 2 μL/well of 4× Lysis Buffer (Cisbio 64KL1FDF), were added and incubated with cells for 30 min on gentle shaking. Finally, lysates were added with 2 μL/well of Eu cryptate (donor) and D2 (acceptor) conjugated antibodies (as provided by the Cisbio kit #64AERPEG/H) diluted 1:100 in Detection Buffer (as provided by the Cisbio kit #64AERPEG/H). Plates were then sealed and incubated at room temperature in the dark. After an overnight incubation, the TR-FRET signal was detected on a suitable reader (Envision, PerkinElmer). The lower the TR-FRET signal the higher the higher the SHP2 inhibition in cells. […] The percentage activity is fitted against the compound dilutions with a four-parameter logistic regression. The inflection point (i.e. the concentration at which half-maximal inhibition is achieved) is the IC50.

[3] = KYSE-520 cells, 2 h at 37° C., TR-FRET

SMILES | IC50 [1] | IC50 [2, 3] | IC50 [2]
CNc1nccc(-c2cnc3[nH]c(N4CCC5(CC4)Cc4ccccc4[C@H]5N)nc3n2)c1Cl [Example 140, (S)-1′-(5-(3-chloro-2-(methylamino)pyridin-4-yl)-1H-imidazo[4,5-b]pyrazin-2-yl)-1,3-dihydrospiro[indene-2,4′-piperidin]-1-amine] | 500 to 3000 nM | > 5000 nM | 
N[C@@H]1c2ccccc2CC12CCN(c1nc3nc(Sc4ccc[n+]([O-])c4C(F)(F)F)cnc3[nH]1)CC2 [Example 141, (S)-3-((2-(1-amino-1,3-dihydrospiro[indene-2,4′-piperidin]-1′-yl)-1H-imidazo[4,5-b]pyrazin-5-yl)thio)-2-(trifluoromethyl)pyridine 1-oxide] | < 500 nM | < 1000 nM | 
CC(C)(C)S(=O)(=O)N[C@@H]1c2cccnc2CC12CCN(c1nc3nc(Sc4cccnc4C(F)(F)F)cnc3[nH]1)CC2 [Example 142, (S)-2-methyl-N-(1′-(5-((2-(trifluoromethyl)pyridin-3-yl)thio)-1H-imidazo[4,5-b]pyrazin-2-yl)-5,7-dihydrospiro[cyclopenta[b]pyridine-6,4′-piperidin]-5-yl)propane-2-sulfonamide] | 500 to 3000 nM | > 5000 nM | 
N[C@@H]1c2ccccc2OC12CCN(c1nc3nc(Sc4cccnc4C(F)(F)F)cnc3[nH]1)CC2 [Example 143, (R)-1′-(5-((2-(trifluoromethyl)pyridin-3-yl)thio)-1H-imidazo[4,5-b]pyrazin-2-yl)-3H-spiro[benzofuran-2,4′-piperidin]-3-amine] | < 500 nM | < 1000 nM | 
CC1(N)CCN(c2nc3nc(Sc4cccc(Cl)c4Cl)ncc3[nH]2)CC1 [Example 144, 1-(2-((2,3-dichlorophenyl)thio)-7H-purin-8-yl)-4-methylpiperidin-4-amine] | 500 to 3000 nM | > 5000 nM | 
Nc1nccc(Sc2cnc3[nH]c(N4CCC5(CC4)Cc4ncccc4[C@H]5N)nc3n2)c1Cl [Example 145, (S)-1′-(5-((2-amino-3-chloropyridin-4-yl)thio)-1H-imidazo[4,5-b]pyrazin-2-yl)-5,7-dihydrospiro[cyclopenta[b]pyridine-6,4′-piperidin]-5-amine] | < 500 nM | < 1000 nM | 
CNc1nccc(Sc2cnc3[nH]c(N4CCC5(CC4)Cc4ncccc4[C@H]5N)nc3n2)c1Cl [Example 146, (S)-1′-(5-((3-chloro-2-(methylamino)pyridin-4-yl)thio)-1H-imidazo[4,5-b]pyrazin-2-yl)-5,7-dihydrospiro[cyclopenta[b]pyridine-6,4′-piperidin]-5-amine] | < 500 nM | < 1000 nM | 
CC(=O)Nc1nccc(Sc2cnc3[nH]c(N4CCC5(CC4)Cc4ccccc4[C@H]5N)nc3n2)c1Cl [Example 147, (S)-N-(4-((2-(1-amino-1,3-dihydrospiro[indene-2,4′-piperidin]-1′-yl)-1H-imidazo[4,5-b]pyrazin-5-yl)thio)-3-chloropyridin-2-yl)acetamide] | < 500 nM | < 1000 nM | 
N[C@@H]1c2ccccc2CC12CCN(c1nc3nc(Sc4ccncc4Cl)cnc3[nH]1)CC2 [Example 148, (S)-1′-(5-((3-chloropyridin-4-yl)thio)-1H-imidazo[4,5-b]pyrazin-2-yl)-1,3-dihydrospiro[indene-2,4′-piperidin]-1-amine] | < 500 nM |  | < 1000 nM
N[C@H]1c2ccccc2CC12CCN(c1nc3nc(Sc4cccnc4C(F)(F)F)cnc3[nH]1)CC2 [Example 149, (R)-1′-(5-((2-(trifluoromethyl)pyridin-3-yl)thio)-1H-imidazo[4,5-b]pyrazin-2-yl)-1,3-dihydrospiro[indene-2,4′-piperidin]-1-amine] | < 500 nM |  | 1000 to 5000 nM
N[C@@H]1c2cccnc2CC12CCN(c1nc3nc(Sc4ccncc4Cl)cnc3[nH]1)CC2 [Example 150, (S)-1′-(5-((3-chloropyridin-4-yl)thio)-1H-imidazo[4,5-b]pyrazin-2-yl)-5,7-dihydrospiro[cyclopenta[b]pyridine-6,4′-piperidin]-5-amine] | < 500 nM | 1000 to 5000 nM | 
